Read-outs that look alike come from different tables or passages of the source.
Legend:
NeNaC2 = tested on: T1, NeNaC2; assay: two-electrode voltage clamp, Xenopus oocytes; format: cell-based, Nematostella vectensis; details: channel activated with pH 6.0, -70 mV
T1 construct: full length, homomeric in Xenopus laevis oocytes (pRSSP vector, cRNA); residues H141 and G516 (DEG position)

NeNaC8 = tested on: T2, NeNaC8; assay: two-electrode voltage clamp, Xenopus oocytes; format: cell-based, Nematostella vectensis; details: -70 mV, read-out: Apparent IC50
T2 construct: full length, homomeric in Xenopus laevis oocytes (pRSSP vector, cRNA)

Compound | IC50 (NeNaC2; complete inhibition at high concentrations, n = 14) | IC50 (NeNaC8; 1.8 mM Ca2+ (standard bath), pH 7.4, not competitive with Ca2+, n = 14) | IC50 (NeNaC2; inhibition incomplete even at high concentrations, n = 10) | IC50 (NeNaC8; channel opened by bath with 100 nM Ca2+, n = 11)
N=C(N)c1ccc(N=NNc2ccc(C(=N)N)cc2)cc1 [diminazene] | 2.4 ± 0.9 µM | 0.124 ± 0.075 µM | – | –
N=C(N)NC(=O)c1nc(Cl)c(N)nc1N [amiloride] | – | – | 1300 ± 2300 µM | 310 ± 180 µM
